Data from patent publication US20230027864A1, “COMPOSITIONS AND METHODS FOR DELIVERY OF AGENTS TO IMMUNE CELLS” (ModernaTX, Inc., priority 2018, published 2023).

Legend:
CD3+ T cells = assay: T cell transfection in vitro with varied LNP components, mOX40L mRNA; assay type: cell-based, human; details: as ionizable lipid or PEG lipid component, Table 23
Procedure: In this example, human peripheral blood mononuclear cells (PBMCs) from two different Donors (Donor 1 and Donor 2) were incubated in the presence of mRNA encoding mouse OX40L (mOX40L) (20 ng or 50 ng) encapsulated in each of the three different LNP compositions tested in Example 3. PBS was used as a negative control. Human PBMCs were incubated ex vivo with the various LNPs at 37° C. After 24 hours, cells were analyzed by flow cytometry for mOX40L protein expression in CD3+ T cells.
In this Example, LNPs were made with various lipid components and at different ratios and were tested for their ability to transfect T cells in vitro. Transfection was performed as in Example 5 using LNPs encapsulating an mRNA encoding mouse OX40L.
In a first set of experiments, phytosterol was used as the immune cell delivery potentiating lipid and other lipid constituents of the LNP were varied.

T cells [1] = assay: LNP association and GFP mRNA expression in T cells of human PBMCs; assay type: cell-based; details: PEG lipid component of the LNP, FIG. 33
Procedure: In a second series of experiments, additional compounds, were tested in the LNPs for their ability to enhance delivery to T cells. For these experiments, the association of the LNP with cells and the expression of mRNA-encoding protein within the transfected cells was assessed at the cell-by-cell level. Peripheral blood mononuclear cells (PBMCs) from human donors were used. PBMCs were predominately T cells (40-60%), B cells (3-15%), and monocytes (15-35%), but also contained small numbers of other cell types. LNPs were incubated with serum or PBS for 30 minutes and then added to the PBMCs. The LNP concentration was 0.050 mg/ml, the LNP volume was 0.1 ml.
LNPs contained 0.1% Rhodamine-DOPE in addition to the other LNP components to facilitate detection. Thus, the ratios set forth in the tables below include 0.1 for the rhodamine label. For example, 50:10:10:27.9:2:0.1 AL:DSPC:chol:sterol:Cmp 428 indicates 50% amino lipid as the ionizable lipid, 10% DSPC as the phospholipid, 10% cholesterol, 27.9% phytosterol, 2% Compound 428 as the PEG lipid and 0.1% for the rhodamine-DOPE label. To prepare a non-labeled LNP, the same ratios are used except that the 0.1% rhodamine label is omitted and an additional 0.1% of structural lipid (cholesterol or cholesterol/phytosterol blend) is used (e.g., 27.9% becomes 28%).
Cells were sorted by flow cytometry into subsets based on expression of certain markers: CD3 (T cells), CD20 (B cells), and CD3-, CD20-, CD14+(Monocytes).
mRNA encoding GFP was used as a model agent to effect expression of an intracellular protein.
When conducting flow cytometry, the Y-axis was signal from the rhodamine tag on the LNP and the X-axis was the GFP signal showing expression of the protein.
The “associated” population is any rhodamine+ and/or GFP+ cell and the percent of these cells was calculated by dividing by the total number of cells. The “expression” population is any GFP+ cell and the percent of these cells was calculated by dividing by the total number of cells. The percent of associated cells expressing was obtained by dividing the % expressing cells by the % associated cells.

monocytes = assay: Sterol panel in LNPs, delivery in vivo (FIG. 40); details: Cmpd X/sterol/Cmpd 428 LNPs, Y-axis percentage of CD3+ cells in spleen expressing mOX40L
Procedure: In a second series of experiments, an additional panel of sterol compounds was tested in LNPs for monocyte delivery in vivo. The results for this panel of sterols tested for the structural lipid component of the LNP are shown in the bar graph of FIG. 40. […] The bars/lanes on the X-axis labeled 1-9 correspond to the following LNP compositions tested for mRNA delivery in vivo: Lane 1 is PBS. Lane 2 is Cmpd X/Cmpd 428, Lane 3 is Cmpd X/β sitosterol/Cmpd 428, Lane 4 is Cmpd X/β-sitosterol-d7/Cmpd 428, Lane 5 is Cmpd X/brassicasterol/Cmpd 428, Lane 6 is Cmpd X/unnamed sterol/Cmpd 428, Lane 7 is Cmpd X/Cmpd S-30/Cmpd 428, Lane S is Cmpd X/Cnpd S-32/Cmpd 428, Lane 9 is Cmpd X/Cmpd S-31/Cmpd 428.

T cells [2] = assay: LNP association and GFP mRNA expression in T cells of human PBMCs; assay type: cell-based; details: third series, in vitro, FIG. 35

Structure (SMILES) | delivery to T cells with phytosterol-containing LNP (CD3+ T cells) | immune cell delivery potentiating ability in T cells, PEG lipid panel (T cells [1]) | immune cell delivery potentiating ability in monocytes, additional sterol panel in vivo (monocytes) | immune cell delivery potentiating ability in T cells, additional sterol panel (T cells [2])
CCCCCCCCCCCCCCCCCC(=O)OCCOCCOCCOCCOCCOCCOCCOCCOCCOCCOCCOCCOCCOCCOCCOCCOCCOCCOCCOCCOCCOCCOCCOCCOCCOCCOCCOCCOCCOCCOCCOCCOCCOCCOCCOCCOCCOCCOCCOCCOCCOCCOCCOCCOCCO [Compound 428] | enhanced delivery to T cells | exhibited immune cell delivery potentiating ability in T cells |  | 
CC(C)[C@@H](C)/C=C/[C@@H](C)[C@H]1CC[C@H]2[C@@H]3CC=C4C[C@@H](O)CC[C@]4(C)[C@H]3CC[C@]12C [brassicasterol] |  |  | exhibited immune cell delivery potentiating ability in monocytes | exhibited immune cell delivery potentiating ability in T cells
